From US20100160356A1, “NOVEL CYCLOBUTYL COMPOUNDS AS KINASE INHIBITORS” (priority 2006, published 2010)

Assays:
IGF1R = IGF1R (Homo sapiens, UniProt P08069); assay: Inhibition of IGF1R (flashplate assay); format: biochemical; conditions: flashplate method
Procedure: (§1) The test plates used are 96-well flashplate microtitre plates from Perkin Elmer (USA). The components of the kinase reaction are pipetted into the assay plate. The IGF1R kinase is incubated for 1 hr. with radioactively labelled ^33P-ATP in the presence and absence of test substances in a total volume of 100 μl at room temperature together with biotinylated poly(Glu, Tyr)4:1. The reaction is terminated using 25 μl of a 200 mM EDTA solution. After incubation for a further 30 min at room temperature, the supernatants are removed by suction, and the wells are washed three times with 100 μl of 0.9% NaCl solution each time. The radioactivity is measured using a Topcount scintillation counter (PerkinElmer, USA). IC50 values are calculated using the RS1 computer program.

IGF1 receptor (IGF1R) = biological target: T1, IGF1 receptor (IGF1R) (Homo sapiens, UniProt P08069); assay: Inhibition of IGF1R (ELISA assay), IGF1-stimulated autophosphorylation in cells; format: cell-based; conditions: human tumour cells stimulated with IGF1, read-out: IC50 IGF (ELISA)
T1 construct: endogenous in cells; host or cells: MCF-7 or Calu-6
Procedure: The stimulation induces an autophosphorylation of tyrosine residues in the cytoplasmatic IGF1R domain, which triggers signal transduction cascades, which result in inhibition of apoptosis and proliferation of the cells.
The amount of phosphorylated IGF1R is determined by a receptor-specific capture ELISA or an analogous LUMINEX assay. The IGF1R from cell lysates is bound to a 96-well ELISA plate or LUMINEX beads by means of a specific antibody (“capturing”), and the tyrosine phosphorylation is detected using a biotin-labelled anti-phosphotyrosine antibody and a streptavidin-peroxidase conjugate by a chemiluminescence method or by means of a fluorescence-labelled anti-phosphotyrosine antibody.
For determination of the activity of kinase inhibitors, cells are pretreated with increasing concentrations of these compounds for 45 min and subsequently stimulated using IGF1 for 5 min. As internal control, the biological activity of the ligand IGF1 is checked, and a concentration series of an IGF1R reference inhibitor is measured.

[1] = biological target: T2, FAK (focal adhesion kinase) (Homo sapiens, UniProt Q05397); assay: Inhibition of FAK (ELISA assay), FAK phosphorylation in cells; format: cell-based; conditions: human cells with FAK amplification
T2 construct: endogenous in cells; host or cells: Calu-6 or HT-29
Procedure: Activated FAK promotes the invasive growth of tumour cells and inhibits anoikis.
The amount of phosphorylated FAK is determined by a specific capture ELISA or an analogous LUMINEX assay. FAK from cell lysates is bound to a 96-well ELISA plate or LUMINEX beads by means of a specific antibody (“capturing”), and the tyrosine phosphorylation is detected using a biotin-labelled anti-phosphotyrosine antibody and a streptavidin-peroxidase conjugate by a chemiluminescence method or by means of a fluorescence-labelled anti-phosphotyrosine antibody.
For determination of the activity of kinase inhibitors, cells are pretreated with increasing concentrations of these compounds for 45 min, and the FAK phosphorylation is then determined. As internal control, a concentration series of a reference inhibitor is measured.

insulin receptor (InsR) = biological target: T3, insulin receptor (InsR) (Homo sapiens, UniProt P06213); assay: Inhibition of InsR (ELISA assay), insulin-stimulated autophosphorylation in cells; format: cell-based; conditions: human cells stimulated with insulin
T3 construct: endogenous in cells; host or cells: HepG2
Procedure: Cultivated human cells which express the insulin receptor (InsR) (for example HepG2) are stimulated using human insulin, the natural ligand of InsR. The stimulation induces autophosphorylation of tyrosine residues in the cytoplasmatic InsR domain, which triggers signal transduction cascades, which initiate various biological reactions of the cells. The amount of phosphorylated InsR is determined by a receptor-specific capture ELISA or an analogous LUMINEX assay. The InsR from cell lysates is bound to a 96-well ELISA plate or LUMINEX beads by means of a specific antibody (“capturing”), and the tyrosine phosphorylation is detected using a biotin-labelled anti-phosphotyrosine antibody and a streptavidin-peroxidase conjugate by a chemiluminescence method or by means of a fluorescence-labelled anti-phosphotyrosine antibody. For determination of the activity of kinase inhibitors, cells are pretreated with increasing concentrations of these compounds for 45 min and subsequently stimulated using insulin for 5 min. As internal control, the biological activity of the ligand insulin is checked, and a concentration series of a reference inhibitor is measured.

Met = Met (Homo sapiens, UniProt P08581); assay: Inhibition of Met (flashplate method); format: biochemical
TGFβR1 = biological target: T4, TGFβR1 (Homo sapiens, UniProt P36897); assay: Inhibition of TGFβR1 (flashplate assay); format: biochemical; conditions: flashplate method
T4 sequence (P36897 34-503): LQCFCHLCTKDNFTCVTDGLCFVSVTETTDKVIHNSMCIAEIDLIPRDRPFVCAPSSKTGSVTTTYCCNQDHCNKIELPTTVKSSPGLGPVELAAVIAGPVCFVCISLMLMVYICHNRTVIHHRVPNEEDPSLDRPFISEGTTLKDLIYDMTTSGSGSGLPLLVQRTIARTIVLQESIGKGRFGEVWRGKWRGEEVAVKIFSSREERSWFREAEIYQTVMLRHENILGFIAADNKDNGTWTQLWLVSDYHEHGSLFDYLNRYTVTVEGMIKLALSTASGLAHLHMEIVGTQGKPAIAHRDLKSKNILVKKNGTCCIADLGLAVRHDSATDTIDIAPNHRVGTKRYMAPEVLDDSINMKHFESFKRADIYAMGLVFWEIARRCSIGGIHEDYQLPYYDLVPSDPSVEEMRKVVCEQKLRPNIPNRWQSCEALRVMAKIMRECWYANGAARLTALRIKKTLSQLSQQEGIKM
Procedure: The test is carried out as described in Example B1b for IGF1R. A biotinylated is added to the TGFβR1 kinase.
The kinase assay is carried out as a 384-well flashplate assay.
The components of the kinase reaction are pipetted into the assay plate. The TGFβR1 kinase is incubated for 45 min with radioactively labelled ^33P-ATP in the presence and absence of test substances together with biotinylated substrate in a total volume of 35 μl. The reaction is terminated using 25 μl of 200 mM EDTA solution, removed by suction after 30 min at room temperature, and the wells are washed with three times with 100 μl of 0.9% NaCl solution each time. The radioactivity is measured using a Topcount scintillation counter (PerkinElmer, USA). IC50 values are calculated using the RS1 computer program.

SGK1 = biological target: T5, SGK1 (Homo sapiens, UniProt O00141); assay: Inhibition of SGK1 (flashplate assay); format: biochemical; conditions: flashplate method
T5 sequence (O00141 1-431): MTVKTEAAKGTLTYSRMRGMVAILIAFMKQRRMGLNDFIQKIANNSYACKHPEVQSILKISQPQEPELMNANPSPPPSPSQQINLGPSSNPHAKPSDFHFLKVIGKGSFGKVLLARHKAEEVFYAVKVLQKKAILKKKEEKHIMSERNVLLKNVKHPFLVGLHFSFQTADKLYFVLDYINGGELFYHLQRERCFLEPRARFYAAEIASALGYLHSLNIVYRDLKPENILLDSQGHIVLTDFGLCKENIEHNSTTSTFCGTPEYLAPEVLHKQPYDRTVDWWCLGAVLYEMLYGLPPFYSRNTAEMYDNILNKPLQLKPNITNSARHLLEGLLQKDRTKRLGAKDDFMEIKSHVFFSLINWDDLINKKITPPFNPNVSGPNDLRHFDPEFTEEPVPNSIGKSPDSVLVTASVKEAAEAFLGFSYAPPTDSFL
Procedure: as §1, with “are 384-well” for “are 96-well”, “The SGK1” for “The IGF1R”, “for 3” for “for 1”

PDGFRβ = PDGFRβ (Homo sapiens, UniProt P09619); assay: Inhibition of PDGFRβ (flashplate assay); format: biochemical; conditions: flashplate method
Procedure: as §1, with “The PDGFRβ” for “The IGF1R”, “for 3” for “for 1”, “temperature (here autophosphorylation of the kinase).” for “temperature together with biotinylated poly(Glu, Tyr)4:1.”, “using 150” for “using 25”, “a 60” for “a 200”, “with 200” for “with 100”

TIE2 = TIE2 (Homo sapiens, UniProt Q02763); assay: Inhibition of TIE2 (flashplate assay); format: biochemical; conditions: flashplate method
Procedure: B4: inhibition of T1E2 (Flashplate Assay)
as §1, with “are 384-well” for “are 96-well”, “The TIE2” for “The IGF1R”, “for 3” for “for 1”

VEGF-2 = VEGF-2 (Homo sapiens, UniProt P35968); assay: Inhibition of VEGF-2 (flashplate assay); format: biochemical; conditions: flashplate method
Procedure: as §1, with “are 384-well” for “are 96-well”, “The VEGF-2” for “The IGF1R”, “for 3” for “for 1”

CHK = assay: Inhibition of CHK (flashplate method); format: biochemical

Sequence of VEGF-2 (P35968 20-1356): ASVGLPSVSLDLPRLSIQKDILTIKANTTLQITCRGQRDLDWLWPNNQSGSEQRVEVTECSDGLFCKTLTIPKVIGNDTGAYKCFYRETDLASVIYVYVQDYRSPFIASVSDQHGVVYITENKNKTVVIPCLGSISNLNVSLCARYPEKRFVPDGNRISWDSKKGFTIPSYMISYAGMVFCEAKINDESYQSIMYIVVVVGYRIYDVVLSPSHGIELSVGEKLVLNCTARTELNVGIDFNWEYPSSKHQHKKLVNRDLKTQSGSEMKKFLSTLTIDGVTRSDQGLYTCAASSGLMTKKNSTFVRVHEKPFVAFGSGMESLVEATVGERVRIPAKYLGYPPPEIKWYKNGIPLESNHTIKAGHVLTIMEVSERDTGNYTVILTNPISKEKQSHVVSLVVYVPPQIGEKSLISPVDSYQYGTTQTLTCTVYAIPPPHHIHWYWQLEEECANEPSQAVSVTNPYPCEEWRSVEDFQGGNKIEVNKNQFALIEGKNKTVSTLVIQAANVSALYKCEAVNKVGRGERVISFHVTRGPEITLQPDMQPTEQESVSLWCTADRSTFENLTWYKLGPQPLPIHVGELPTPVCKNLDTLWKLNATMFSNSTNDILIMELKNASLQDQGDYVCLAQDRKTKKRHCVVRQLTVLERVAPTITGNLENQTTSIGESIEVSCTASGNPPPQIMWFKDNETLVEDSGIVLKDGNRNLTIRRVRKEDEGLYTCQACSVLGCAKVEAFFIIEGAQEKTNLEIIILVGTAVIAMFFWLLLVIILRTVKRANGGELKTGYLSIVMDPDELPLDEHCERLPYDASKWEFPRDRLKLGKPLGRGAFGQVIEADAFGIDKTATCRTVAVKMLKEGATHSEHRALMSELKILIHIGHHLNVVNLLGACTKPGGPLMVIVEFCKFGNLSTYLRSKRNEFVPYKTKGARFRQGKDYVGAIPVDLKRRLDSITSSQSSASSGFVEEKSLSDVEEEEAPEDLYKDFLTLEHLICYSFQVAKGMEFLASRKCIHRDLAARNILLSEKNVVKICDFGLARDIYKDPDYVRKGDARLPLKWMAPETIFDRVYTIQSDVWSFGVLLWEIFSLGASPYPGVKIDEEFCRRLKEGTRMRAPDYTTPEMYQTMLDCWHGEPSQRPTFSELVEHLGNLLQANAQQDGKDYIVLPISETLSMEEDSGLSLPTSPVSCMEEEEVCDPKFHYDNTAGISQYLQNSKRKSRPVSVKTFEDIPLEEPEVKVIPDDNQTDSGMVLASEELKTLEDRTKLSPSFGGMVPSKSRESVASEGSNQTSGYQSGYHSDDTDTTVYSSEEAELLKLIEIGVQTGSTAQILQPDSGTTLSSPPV
Sequence of PDGFRβ (P09619 33-1106, species assumed): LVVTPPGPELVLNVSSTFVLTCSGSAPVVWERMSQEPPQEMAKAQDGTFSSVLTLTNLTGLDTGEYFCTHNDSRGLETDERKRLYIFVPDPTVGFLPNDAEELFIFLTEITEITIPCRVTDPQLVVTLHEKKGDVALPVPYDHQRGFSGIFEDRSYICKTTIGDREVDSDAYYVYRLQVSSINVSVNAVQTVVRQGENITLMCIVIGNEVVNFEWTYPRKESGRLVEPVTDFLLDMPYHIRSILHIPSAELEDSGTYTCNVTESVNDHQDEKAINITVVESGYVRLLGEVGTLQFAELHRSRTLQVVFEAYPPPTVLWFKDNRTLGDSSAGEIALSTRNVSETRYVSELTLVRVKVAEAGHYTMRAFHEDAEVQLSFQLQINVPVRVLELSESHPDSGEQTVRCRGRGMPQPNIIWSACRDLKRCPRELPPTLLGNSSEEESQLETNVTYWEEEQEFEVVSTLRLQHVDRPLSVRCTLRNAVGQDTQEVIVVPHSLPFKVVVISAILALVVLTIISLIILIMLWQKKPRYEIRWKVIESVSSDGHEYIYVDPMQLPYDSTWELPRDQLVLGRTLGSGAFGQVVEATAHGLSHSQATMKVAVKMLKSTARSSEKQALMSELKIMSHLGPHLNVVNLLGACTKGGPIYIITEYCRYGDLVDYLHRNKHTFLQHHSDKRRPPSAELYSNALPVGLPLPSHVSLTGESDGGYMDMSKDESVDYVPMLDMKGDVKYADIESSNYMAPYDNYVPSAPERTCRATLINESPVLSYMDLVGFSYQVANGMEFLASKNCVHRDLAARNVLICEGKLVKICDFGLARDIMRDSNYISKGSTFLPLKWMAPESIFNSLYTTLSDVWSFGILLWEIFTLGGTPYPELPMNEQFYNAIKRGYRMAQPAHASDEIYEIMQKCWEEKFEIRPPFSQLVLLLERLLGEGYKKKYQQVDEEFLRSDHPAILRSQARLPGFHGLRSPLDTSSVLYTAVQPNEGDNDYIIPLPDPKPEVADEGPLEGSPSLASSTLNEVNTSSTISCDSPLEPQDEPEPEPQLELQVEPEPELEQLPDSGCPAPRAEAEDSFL
T2 sequence (Q05397 whole entry): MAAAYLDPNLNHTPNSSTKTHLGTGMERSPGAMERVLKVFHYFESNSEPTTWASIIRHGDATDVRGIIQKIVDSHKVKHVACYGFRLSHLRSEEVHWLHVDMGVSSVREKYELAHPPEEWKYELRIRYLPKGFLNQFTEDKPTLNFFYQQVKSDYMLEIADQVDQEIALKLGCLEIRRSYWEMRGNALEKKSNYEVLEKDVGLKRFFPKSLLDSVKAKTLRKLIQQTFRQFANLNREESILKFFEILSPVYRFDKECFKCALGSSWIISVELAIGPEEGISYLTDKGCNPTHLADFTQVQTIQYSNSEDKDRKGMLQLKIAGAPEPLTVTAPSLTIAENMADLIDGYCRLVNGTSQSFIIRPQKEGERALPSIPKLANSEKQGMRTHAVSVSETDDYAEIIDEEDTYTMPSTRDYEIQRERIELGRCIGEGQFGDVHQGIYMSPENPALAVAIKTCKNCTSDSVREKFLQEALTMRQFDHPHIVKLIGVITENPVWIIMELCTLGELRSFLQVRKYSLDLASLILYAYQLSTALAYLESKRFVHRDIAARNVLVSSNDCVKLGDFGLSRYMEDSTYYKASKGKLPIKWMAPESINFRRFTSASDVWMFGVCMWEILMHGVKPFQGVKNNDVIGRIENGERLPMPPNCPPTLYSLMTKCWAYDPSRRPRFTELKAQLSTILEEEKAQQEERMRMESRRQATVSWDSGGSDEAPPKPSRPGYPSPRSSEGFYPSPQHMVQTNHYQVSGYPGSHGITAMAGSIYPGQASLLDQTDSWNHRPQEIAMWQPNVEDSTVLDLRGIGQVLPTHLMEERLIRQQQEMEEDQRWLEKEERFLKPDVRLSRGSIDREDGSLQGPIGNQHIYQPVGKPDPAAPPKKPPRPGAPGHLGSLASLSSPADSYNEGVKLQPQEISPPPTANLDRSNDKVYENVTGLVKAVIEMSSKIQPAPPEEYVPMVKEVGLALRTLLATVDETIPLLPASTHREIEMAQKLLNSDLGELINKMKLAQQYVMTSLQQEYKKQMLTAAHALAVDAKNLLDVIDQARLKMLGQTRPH
Sequence of IGF1R (P08069 31-1367, species assumed): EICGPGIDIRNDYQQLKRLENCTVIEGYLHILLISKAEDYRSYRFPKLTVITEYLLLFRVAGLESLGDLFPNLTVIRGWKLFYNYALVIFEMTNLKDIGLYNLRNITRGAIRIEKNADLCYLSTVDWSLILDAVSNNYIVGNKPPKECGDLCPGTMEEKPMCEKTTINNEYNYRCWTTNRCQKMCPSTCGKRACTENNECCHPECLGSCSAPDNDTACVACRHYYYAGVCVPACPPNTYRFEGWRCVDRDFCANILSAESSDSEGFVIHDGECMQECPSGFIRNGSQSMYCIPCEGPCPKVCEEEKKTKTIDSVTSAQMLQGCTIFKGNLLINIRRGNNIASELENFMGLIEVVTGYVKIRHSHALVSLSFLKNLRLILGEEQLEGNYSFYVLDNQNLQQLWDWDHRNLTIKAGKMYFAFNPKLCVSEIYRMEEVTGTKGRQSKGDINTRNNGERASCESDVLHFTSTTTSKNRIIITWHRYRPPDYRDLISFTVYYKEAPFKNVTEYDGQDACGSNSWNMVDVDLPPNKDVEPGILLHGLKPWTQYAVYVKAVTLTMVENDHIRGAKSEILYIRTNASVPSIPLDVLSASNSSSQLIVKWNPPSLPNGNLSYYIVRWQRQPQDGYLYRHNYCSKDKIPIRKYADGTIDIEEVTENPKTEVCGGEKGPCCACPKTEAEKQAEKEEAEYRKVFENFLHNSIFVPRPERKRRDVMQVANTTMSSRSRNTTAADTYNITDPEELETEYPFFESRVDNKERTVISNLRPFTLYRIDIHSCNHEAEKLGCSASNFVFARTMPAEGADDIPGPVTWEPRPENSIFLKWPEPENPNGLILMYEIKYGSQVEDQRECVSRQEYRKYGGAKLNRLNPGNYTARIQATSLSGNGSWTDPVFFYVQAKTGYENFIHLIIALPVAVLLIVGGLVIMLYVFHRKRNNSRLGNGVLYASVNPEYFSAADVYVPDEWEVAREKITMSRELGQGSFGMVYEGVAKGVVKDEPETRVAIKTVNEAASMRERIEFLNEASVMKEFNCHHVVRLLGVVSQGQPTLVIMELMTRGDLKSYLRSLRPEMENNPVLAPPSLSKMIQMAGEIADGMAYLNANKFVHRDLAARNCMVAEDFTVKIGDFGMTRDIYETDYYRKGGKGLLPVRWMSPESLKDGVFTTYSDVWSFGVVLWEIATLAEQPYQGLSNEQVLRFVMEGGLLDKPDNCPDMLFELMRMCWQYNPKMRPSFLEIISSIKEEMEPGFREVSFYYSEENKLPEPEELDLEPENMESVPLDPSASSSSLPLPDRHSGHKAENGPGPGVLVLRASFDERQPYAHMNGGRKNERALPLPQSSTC
T1 sequence (P08069 31-1367): as the sequence (P08069 31-1367, species assumed) above

`C[Si](C)(COc1cccc(-c2cn(C3CC(CN)C3)c3ncnc(N)c23)c1)c1ccccc1` (stereo not shown) [Compound 8] showed an IC50 (IGF1R) of 0.32 µM, an IC50 (IGF1 receptor (IGF1R)) of 0.81 µM and an IC50 [1] of 16 µM. The IC50 (insulin receptor (InsR)) was 9.5 µM and the IC50 (Met) was 1.1 µM.

For `C[Si](C)(C)COc1cccc(-c2cn(C3CC(CN)C3)c3ncnc(N)c23)c1` (stereo not shown) [Compound 9], the IC50 (IGF1R) was 0.13 µM, the IC50 (IGF1 receptor (IGF1R)) was 0.57 µM and the IC50 [1] was 14 µM. For the same molecule, the IC50 (insulin receptor (InsR)) was 5.5 µM.

`NCC1CC(n2cc(-c3cccc(N)c3)c3c(N)ncnc32)C1` (stereo not shown) [Compound 23] gave an IC50 (TGFβR1) of 0.81 µM, an IC50 (IGF1R) of 7.6 µM and an IC50 (IGF1 receptor (IGF1R)) of 14 µM. It also gave an IC50 [1] of 1.21 µM and an IC50 (SGK1) of 1.95 µM.

`NCC1CC(n2cc(-c3cccc(NCc4ccccc4)c3)c3c(N)ncnc32)C1` (stereo not shown) [Compound 25] gave an IC50 (TGFβR1) of 3.7 µM, an IC50 (IGF1R) of 0.82 µM and an IC50 (PDGFRβ) of 1.2 µM. The IC50 (IGF1 receptor (IGF1R)) was 3 µM, the IC50 (TIE2) was 1.5 µM and the IC50 (SGK1) was 3.6 µM. For the same molecule, the IC50 (VEGF-2) was 0.39 µM and the melting point was 204 to 206 °C.

For `NCC1CC(n2cc(-c3ccco3)c3c(N)ncnc32)C1` (stereo not shown) [Compound 38], the IC50 (IGF1 receptor (IGF1R)) was 17 µM, the IC50 [1] was 18 µM and the IC50 (SGK1) was 2.6 µM. For the same molecule, the IC50 (CHK) was 8.8 µM and the IC50 (VEGF-2) was 2.3 µM.

`NCC1CC(n2cc(-c3ccoc3)c3c(N)ncnc32)C1` (stereo not shown) [Compound 39] showed an IC50 (TGFβR1) of 8.5 µM, an IC50 [1] of 15 µM and an IC50 (SGK1) of 2.5 µM.

With `NCC1CC(n2cc(-c3ccsc3)c3c(N)ncnc32)C1` (stereo not shown) [Compound 40] the IC50 (TGFβR1) was 2.2 µM, the IC50 (PDGFRβ) was 0.75 µM and the IC50 (IGF1 receptor (IGF1R)) was 18 µM. The IC50 (TIE2) was 9.3 µM, the IC50 [1] was 2.6 µM and the IC50 (SGK1) was 8.4 µM. The IC50 (VEGF-2) was 1.8 µM and the melting point was 109 to 111 °C.

With `NCC1CC(n2cc(-c3cccs3)c3c(N)ncnc32)C1` (stereo not shown) [Compound 41] the IC50 (TGFβR1) was 2.7 µM, the IC50 (IGF1R) was 5.6 µM and the IC50 (IGF1 receptor (IGF1R)) was 6.2 µM. For the same molecule, the IC50 (TIE2) was 4.8 µM, the IC50 [1] was 3.8 µM and the IC50 (SGK1) was 1.6 µM. It also gave an IC50 (VEGF-2) of 1.2 µM.

Molecule `NCC1CC(n2cc(C#CCO)c3c(N)ncnc32)C1` (stereo not shown) [Compound 47] has an IC50 (SGK1) of 2.55 µM.

In the case of `NCC1CC(n2cc(I)c3c(N)ncnc32)C1` (stereo not shown) [Compound 52], the IC50 (PDGFRβ) is reported as 1.1 µM, the IC50 (IGF1 receptor (IGF1R)) is reported as 7.5 µM and the IC50 (TIE2) is reported as 2.6 µM. The IC50 (SGK1) was 0.25 µM and the IC50 (VEGF-2) was 0.715 µM.

In the case of `Nc1ncnc2c1c(-c1ccc3occc3c1)cn2C1CC(CNC(=O)C(F)(F)F)C1` (stereo not shown) [Compound 64], the IC50 (TGFβR1) is reported as 0.33 µM, the IC50 (PDGFRβ) is reported as 2.45 µM and the IC50 (TIE2) is reported as 2.4 µM. The IC50 [1] was 3.6 µM, the IC50 (SGK1) was 4.4 µM and the IC50 (VEGF-2) was 1.06 µM. It also gave a melting point of 92 to 93.5 °C.

`Cc1csc(-c2cn(C3CC(CN)C3)c3ncnc(N)c23)c1` (stereo not shown) [Compound 70] showed an IC50 (TGFβR1) of 1.4 µM, an IC50 (PDGFRβ) of 2.5 µM and an IC50 (IGF1 receptor (IGF1R)) of 8.5 µM. The IC50 (TIE2) was 2.6 µM, the IC50 [1] was 7.1 µM and the IC50 (SGK1) was 4.45 µM.
